Columns and labels:
Gloeophyllum trabeum = experiment: Soil block test (AWPA E10-10), decay resistance of treated wood blocks; type: cell-based; settings: 12 weeks at 28° C., mean of 6 blocks (SD)
Method: Soil Block Test. The soil block test (AWPA, 2010) is a relatively rapid laboratory method for assessing the decay resistance of wood-based materials under conditions that favor rapid fungal attack of wood. Soil block tests were conducted upon blocks treated with compounds and compositions described herein. Leachates from the blocks were collected prior to fungal exposure and analyzed.
Ponderosa pine (Pinus ponderosa L) sapwood blocks (19 mm cubes) were oven dried (60° C.) and weighed. The blocks were then randomly allocated, in groups of 12, to the various treatment groups. Treatment solutions containing actives (e.g., the compounds and compositions described herein) were supplied as 10% active ingredient concentrates. These solutions were then diluted with toluene to produce treatment solutions containing 0.1, 0.5, 1.0 and 3.0% active ingredient solutions. The blocks from a given group were placed in a container and covered with an excess of a given treatment solution. This container was placed in a desiccator. A vacuum was drawn over the vessel and then released. The blocks were removed from the treatment solution and blotted to remove excess solution before being weighed. The difference between the original dry weight and the wet weight was used to calculated net solution uptake. The blocks were stored wet for 3 days at 20-23° C. to allow any fixation reactions to proceed before being oven dried at 60° C. and weighed. The blocks were then conditioned to constant weight at 23° C. and 65% relative humidity prior to further testing.
(§1) Six blocks from each treatment group were subjected to a 14-day leaching procedure as described AWPA Standard E11-10 from the American Wood Preservers' Association's (AWPA) “Standard method of determining the leachability of wood preservatives” in the AWPA Book of Standards, Birmingham, Ala., 2010. The blocks were immersed in an excess of water, and subjected to a short vacuum. The water was then changed after 6, 24, and 48 hours of immersion and at 48 hour intervals over a total of 14 days. An aliquot of the leachate was retained at each time point for later analysis. The leached blocks were then reconditioned to constant weight at 23° C. and 65% relative humidity. Leachate collected at each time point was analyzed for boron using the azomethine H method as described in AWPA Standard A2-10 Method 16. All of the blocks were briefly soaked with water prior to being placed in plastic bags and sterilized by exposure to 2.5 mrad of ionizing radiation from a cobalt 60 source.
Decay chambers were prepared by half filling 454 ml French squares with moisture forest loam and placing a western hemlock feeder strip on the soil surface as described in AWPA Standard E10-10 “Standard method of testing wood preservatives by laboratory soil-block cultures.” The bottles were then loosely capped and autoclaved for 45 minutes at 121° C.
After cooling, the bottles were inoculated with 2 to 3 mm diameter malt agar disks cut from the actively growing edges of cultures of the test fungus, Gloeophyllum trabeum (Pers. ex Fr.) Murr. (Isolate: Madison 617). This fungus causes a brown rot of wood and tends to have some tolerance to boron compounds. The agar plugs were placed on the edges of the wood feeder strips, and the jars were loosely capped (to allow air exchange), and incubated until the feeder strip was thoroughly covered with fungal mycelium. The sterile test blocks were then placed on the surfaces of the feeder strips, the bottles were loosely capped and incubated at 28° C. for 12 weeks.
At the end of the incubation period, the blocks were removed, scraped clean of adhering mycelium and weighed to determine wet weight. The blocks were then oven dried (60° C.) and weighed. Differences between initial and final oven-dry weight were used as a measure of the decay resistance of each material.

[1] = 14-day leaching procedure (AWPA E11-10), boron in leachate by azomethine H method; type: physicochemical; settings: 14-day water leaching of treated blocks
Method: as §1

Borate
Average Wood Weight Loss (Gloeophyllum trabeum; 0.1% B, Leaching + (first line of treatment)): 50.8 (4.2) % | Average Wood Weight Loss (Gloeophyllum trabeum; 0.1% B, second line of treatment, Leaching +): 53.8 (11.5) % | Average Wood Weight Loss (Gloeophyllum trabeum; 0.5% B, Leaching + (first line of treatment)): 46.5 (3.3) % | Average Wood Weight Loss (Gloeophyllum trabeum; 0.5% B, second line of treatment, Leaching +): 46.3 (2.4) % | Average Wood Weight Loss (Gloeophyllum trabeum; 1.0% B, Leaching + (first line of treatment)): 53.6 (4.3) % | Average Wood Weight Loss (Gloeophyllum trabeum; 1.0% B, second line of treatment, Leaching +): 48.3 (8.7) % | Average Wood Weight Loss (Gloeophyllum trabeum; 3.0% B, Leaching + (first line of treatment)): 51.8 (8.3) % | Average Wood Weight Loss (Gloeophyllum trabeum; 3.0% B, second line of treatment, Leaching printed + (probably non-leached)): 27.3 (6.9) % | Boron concentrations in leachates (rank among formulations) [1]: highest
